Reference: patent US11220482B2, “Aminopyridinemethanol compounds and their use” (UNIVERSITE AMIENS PICARDIE JULES VERNE, priority 2017, dated 2022)
Where two headings read alike, the source gives them in different places.

How the values were obtained:
P. falciparum 3D7 = assay: P. falciparum growth inhibition assay, second round (SYBR Green I, ICEstimator); type: cell-based, Plasmodium falciparum
[1] = in vivo, cited from earlier work
Plasmodium falciparum W2 = assay: Plasmodium falciparum susceptibility assay, first round (SYBR Green I); type: cell-based
[2] = tested on: Plasmodium falciparum 3D7; assay: as above; type: cell-based
CHO-K1 cells = assay: In vitro micronucleus assay, short-term exposure; conditions: short-term, with S9 mix, positive control 5 μg/mL
Description: All the assays were conducted in duplicate. The CHO-K1 cells, suspended in McCoy's 5A medium, were transferred into Labteck wells at a concentration of 100,000 cells/mL, and incubated for 24 hours at 37° C. in CO2 (5%).
When the test was performed without metabolic activation, the test substances were added into cell cultures at concentrations previously defined.
When the assay was performed in the presence of metabolic activation, S9 mix metabolizing mixture was added to cell cultures at a concentration of 10%. Then the test substances were added to the cell cultures at concentrations previously defined.
After 3 hours of incubation at 37° C. in CO2 (5%), the culture medium was removed, the cells were rinsed with phosphate buffered saline (PBS), and then returned to culture in McCoy's 5A medium containing […] of cytochalasin B. After a 21-hour incubation period at 37° C., cells were rinsed with phosphate buffered saline (PBS), fixed with methanol and stained with 10% Giemsa for 20 minutes.
The analysis of results was performed under a microscope at ×1000 magnification. The antiproliferative activity of test substances was estimated by counting the number of binucleated cells relative to the number of mononucleated cells on a total of 500 cells for each dose (250 cells counted per well). The proliferation index (Cytokinesis Blocked Proliferative Index CBPI) was calculated using the following formula:
The cytostasis index (CI %), i.e. the percentage of cell replication inhibition, was calculated using the following formula: CI %−100−{100×(CBPItest material−1)/(CBPIsolvent control−1)}
The rates of micronuclei were evaluated for the presence of independent nuclear core entities in 1000 binucleated cells per well, which corresponds to 2000 cells examined by test substance dose. Micronuclei were identified as small nuclei well differentiated from cell nucleus, stained in the same manner and having a diameter less than one third of that of the cell nucleus.
Micronuclei rates obtained for different doses of test substances were compared to the negative control by a χ2 test. The assay was considered positive if: • A dose-response relationship was obtained between the rate of micronuclei and the doses tested, • At least one of these doses induced a statistically significant increase (P<0.05) in the number of micronucleated cells as compared to the negative control.

[3] = 48 h, read-out: IC50 (nM) Plasmodium falciparum 3D7 (converted)
[4] = Plasmodium falciparum, 3D7, 48 h
[5] = W2, first round, 48-h incubation, strain resistant to CQ, sensitive to MQ, read-out: IC50 (nM) Plasmodium falciparum W2 (converted)
[6] = 3D7, first round, 48-h incubation, strain susceptible to CQ, decreased susceptibility to MQ, read-out: IC50 (nM) Plasmodium falciparum 3D7 (converted)

Compound | IC50 (P. falciparum 3D7; [4]) [nM] | IC50 (Plasmodium falciparum W2; [5]) [nM] | IC50 [2, 6] [nM] | also measured
O[C@@H](CNCCCC(F)(F)F)c1cc(-c2ccc(C(F)(F)F)cc2)nc(C(F)(F)F)c1 [Compound 1p, (R)-2-((4,4,4-trifluorobutyl)amino)-1-(2-(trifluoromethyl)-6-(4-(trifluoromethyl)phenyl)pyridin-4-yl)ethan-1-ol] | < 50 |  |  | IC50 (P. falciparum 3D7; [3]): 43 nM
O[C@H](CNCCCC(F)(F)F)c1cc(-c2ccc(C(F)(F)F)cc2)nc(C(F)(F)F)c1 [Compound 1o, (S)-2-((4,4,4-trifluorobutyl)amino)-1-(2-(trifluoromethyl)-6-(4-(trifluoromethyl)phenyl)pyridin-4-yl)ethan-1-ol] | < 50 |  |  | IC50 (P. falciparum 3D7; [3]): 39.3 ± 5.83 nM
O[C@H](CN[C@H](COCC1CC1)Cc1ccccc1)c1cc(-c2ccc(C(F)(F)F)cc2)nc(C(F)(F)F)c1 [Compound 1u, (S)-2-(((S)-1-(cyclopropylmethoxy)-3-phenylpropan-2-yl)amino)-1-(2-(trifluoromethyl)-6-(4-(trifluoromethyl)phenyl)pyridin-4-yl)ethan-1-ol] | 9.31 ± 2.16 |  |  | 
OC(c1cc(C(F)(F)F)nc2c(C(F)(F)F)cccc12)C1CCCCN1 (racemic) [Mefloquine, mefloquine] |  |  |  | human t1/2 [1]: 2-4 weeks
OC(c1cc(C(F)(F)F)nc2c(C(F)(F)F)cccc12)C1CCCCN1 (stereo not drawn) [MQ, Mefloquine, reference compound] | 32.3 ± 3.2 | 31.8 ± 1 | 79.7 ± 8.5 | 
O[C@@H](CN[C@H](COCC1CC1)Cc1ccccc1)c1ccc(-c2ccc(C(F)(F)F)cc2)nc1C(F)(F)F [Compound 30v, (R)-2-(((S)-1-(cyclopropylmethoxy)-3-phenylpropan-2-yl)amino)-1-(2-(trifluoromethyl)-6-(4-(trifluoromethyl)phenyl)pyridin-3-yl)ethan-1-ol] | 896 |  |  | 
O[C@H](CNCCCCCCF)c1cc(-c2ccc(C(F)(F)F)cc2)nc(C(F)(F)F)c1 [Compound 1q, (S)-2-((6-fluorohexyl)amino)-1-(2-(trifluoromethyl)-6-(4-(trifluoromethyl)phenyl)pyridine-4-yl)ethan-1-ol] | < 50 |  |  | IC50 (P. falciparum 3D7; [3]): 31.4 nM
c1ccc2c(c1)cc1ccc3cccc4ccc2c1c34 [Benzo-a-pyrene, benzo-a-pyrene, reference compound] |  |  |  | BI (binucleated cells) (CHO-K1 cells): 475; MNC1 (micronucleated cell rate) (CHO-K1 cells): 28 ‰; MNC2 (micronucleated cell rate) (CHO-K1 cells): 25 ‰; MNC-M (mean of micronucleated cell rates) (CHO-K1 cells): 26.5 ± 2.12 ‰; MONO (mononucleated cells) (CHO-K1 cells): 25
CCCCN(CCCC)CC(O)c1cc(Cl)cc2c1-c1ccc(Cl)cc1/C2=C/c1ccc(Cl)cc1 (stereo not drawn) [lumefantrine] |  |  |  | human t1/2 [1]: 3 to 4 days
O[C@H](CN[C@H](COCC1CC1)Cc1ccccc1)c1ccc(-c2ccc(C(F)(F)F)cc2)nc1C(F)(F)F [Compound 30u, (S)-2-(((S)-1-(cyclopropylmethoxy)-3-phenylpropan-2-yl)amino)-1-(2-(trifluoromethyl)-6-(4-(trifluoromethyl)phenyl)pyridin-3-yl)ethan-1-ol] | 165 ± 21.9 |  |  | 
CCCCCCCNC[C@@H](O)c1ccc(-c2ccc(C(F)(F)F)cc2)nc1C(F)(F)F [Compound 30g, (S)-2-(Heptylamino)-1-(2-(trifluoromethyl)-6-(4-(trifluoromethyl)phenyl)pyridin-3-yl)ethanol] |  | 25.2 ± 1.2 | 97 ± 14 | 
O[C@@H](CNCCNC(c1ccccc1)c1ccccc1)c1cc(-c2ccc(C(F)(F)F)cc2)nc(C(F)(F)F)c1 [Compound 1h, (R)-2-((2-Benzhydrylamino)ethylamino)-1-(2-(trifluoromethyl)-6-(4-(trifluoromethyl)phenyl)pyridin-4-yl)ethanol] |  | 5.9 | 25 | 
O[C@H](CNCCCN1CCN(C(c2ccccc2)c2ccccc2)CC1)c1ccc(-c2ccc(C(F)(F)F)cc2)nc1C(F)(F)F [Compound 30o] |  | 212 ± 38.6 | 111 ± 8.3 | 
O[C@@H](CNCCCN1CCN(C(c2ccccc2)c2ccccc2)CC1)c1ccc(-c2ccc(C(F)(F)F)cc2)nc1C(F)(F)F [Compound 30p, (R)-2-((3-(4-Benzhydrylpiperazin-1-yl)propyl)amino)-1-(2-(trifluoromethyl)-6-(4-(trifluoromethyl)phenyl)pyridin-3-yl)ethanol] |  | 89.6 | 84.9 | 
O[C@@H](CNCCCN1CCN(C(c2ccccc2)c2ccccc2)CC1)c1cc(-c2ccc(C(F)(F)F)cc2)nc(C(F)(F)F)c1 [Compound 1n, (R)-2-((3-(4-benzhydrylpiperazin-1-yl)propyl)amino)-1-(2-(trifluoromethyl)-6-(4-(trifluoromethyl)phenyl)pyridin-4-yl)ethanol] | < 50 | 86.9 |  | 
CCN(CC)CCCC(C)Nc1ccnc2cc(Cl)ccc12 (stereo not drawn) [CQ, Chloroquine, reference compound] |  |  |  | IC50 (Plasmodium falciparum W2; W2, 48 h, read-out: IC50 (nM) Plasmodium falciparum W2): 199 ± 27 nM; IC50 ([2]; 3D7, 48 h, read-out: IC50 (nM) Plasmodium falciparum 3D7): 75.9 ± 3 nM
C[C@@H]1CC[C@H]2[C@@H](C)C(=O)O[C@@H]3O[C@@]4(C)CC[C@@H]1[C@]32OO4 [Artemisinin] |  |  |  | human t1/2 [1]: 0.042 days
O[C@@H](CNCCNC(c1ccccc1)c1ccccc1)c1ccc(-c2ccc(C(F)(F)F)cc2)nc1C(F)(F)F [Compound 30j, (R)-2-((2-(Benzhydrylamino)ethyl)amino)-1-(2-(trifluoromethyl)-6-(4-(trifluoromethyl)phenyl)pyridin-3-yl)ethanol] |  | 171 | 92.1 | 
CCCCCCNC[C@H](O)c1cc(-c2ccc(C(F)(F)F)cc2)nc(C(F)(F)F)c1 [Compound 1d, (R)-2-(Hexylamino)-1-(2-(trifluoromethyl)-6-(4-(trifluoromethyl)phenyl)pyridin-4-yl)ethanol] |  | 8.3 | 32.3 | 
OC(c1cc(-c2ccc(C(F)(F)F)cc2)nc(C(F)(F)F)c1)C1CCCCN1 (racemic) [Enpiroline, reference compound] | 21.6 ± 1.43 |  |  | mean half-life [1]: 140 h
COC[C@H](Cc1ccccc1)NC[C@@H](O)c1ccc(-c2ccc(C(F)(F)F)cc2)nc1C(F)(F)F [Compound 30k, (S)-2-(((S)-1-methoxy-3-phenylpropan-2-yl)amino)-1-(2-(trifluoromethyl)-6-(4-(trifluoromethyl)phenyl)pyridin-3-yl)ethanol] |  | 351 ± 50.7 | 65.3 ± 8.4 | 
CCCCCCNC[C@H](O)c1ccc(-c2ccc(C(F)(F)F)cc2)nc1C(F)(F)F [Compound 30f, (R)-2-(Hexylamino)-1-(2-(trifluoromethyl)-6-(4-(trifluoromethyl)phenyl)pyridin-3-yl)ethanol] |  | 523 | 575 | 
COC[C@H](Cc1ccccc1)NC[C@H](O)c1ccc(-c2ccc(C(F)(F)F)cc2)nc1C(F)(F)F [Compound 30l, (R)-2-(((S)-1-methoxy-3-phenylpropan-2-yl)amino)-1-(2-(trifluoromethyl)-6-(4-(trifluoromethyl)phenyl)pyridin-3-yl)ethanol] |  | 258 | 414 | 
CCCCCNC[C@H](O)c1cc(-c2ccc(C(F)(F)F)cc2)nc(C(F)(F)F)c1 [Compound 1b, (R)-2-(Pentylamino)-1-(2-(trifluoromethyl)-6-(4-(trifluoromethyl)phenyl)pyridin-4-yl)ethanol] |  | 7.2 | 41.8 | 
O[C@H](CNCCNC(c1ccccc1)c1ccccc1)c1cc(-c2ccc(C(F)(F)F)cc2)nc(C(F)(F)F)c1 [Compound 1g, (S)-2-((2-(Benzhydrylamino)ethyl)amino)-1-(2-(trifluoromethyl)-6-(4-(trifluoromethyl)phenyl)pyridin-4-yl)ethanol] |  | 13.1 ± 1 | 22.4 ± 2.5 | 
